How the values were obtained:
[1] = 100 kPa, Liquid; for viscosity: Falling or rolling sphere viscometry; for mass density: Vibrating tube method
[2] = xn = mol fraction of the nth substance listed; conditions: 100 kPa, Liquid, x1 = 1; for viscosity: Falling or rolling sphere viscometry; for mass density: Vibrating tube method

CCO [ethanol]
[1]
Conditions | mass density [kg/m3] | viscosity [mPa·s]
293.15 K | 790.1 | 1.15
298.15 K | 785.9 | 1.07
303.15 K | 781.6 | 0.97
308.15 K | 777.2 | 0.89
313.15 K | 772.9 | 0.81
318.15 K | 768.4 | 0.76
323.15 K | 764 | 0.68
328.15 K | 759.4 | 0.63

CCO [ethanol] + CCCCCCCO
[2]
Conditions | mass density [kg/m3] | viscosity [mPa·s]
293.15 K | 790.1 | 1.15
298.15 K | 785.9 | 1.07
303.15 K | 781.6 | 0.97
308.15 K | 777.2 | 0.89
313.15 K | 772.9 | 0.81
318.15 K | 768.4 | 0.76
323.15 K | 764 | 0.68
328.15 K | 759.4 | 0.63

CCO [ethanol] + CCCCCCO
[2]
Conditions | mass density [kg/m3] | viscosity [mPa·s]
293.15 K | 790.1 | 1.15
298.15 K | 785.9 | 1.07
303.15 K | 781.6 | 0.97
308.15 K | 777.2 | 0.89
313.15 K | 772.9 | 0.81
318.15 K | 768.4 | 0.76
323.15 K | 764 | 0.68
328.15 K | 759.4 | 0.63

CCCCCCCO [heptan-1-ol]
[1]
Conditions | mass density [kg/m3] | viscosity [mPa·s]
293.15 K | 822.3 | 7.15
298.15 K | 818.8 | 6.07
303.15 K | 815.3 | 5.18
308.15 K | 811.8 | 4.44
313.15 K | 808.2 | 3.83
318.15 K | 804.6 | 3.33
323.15 K | 801 | 2.89
328.15 K | 797.4 | 2.54

CCCCCCO [hexan-1-ol]
[1]
Conditions | mass density [kg/m3] | viscosity [mPa·s]
293.15 K | 818.9 | 5.35
298.15 K | 815.3 | 4.56
303.15 K | 811.7 | 3.9
308.15 K | 808.1 | 3.36
313.15 K | 804.5 | 2.91
318.15 K | 800.8 | 2.54
323.15 K | 797.1 | 2.23
328.15 K | 793.4 | 1.97

— the NIST ThermoML archive (doi:10.1021/je501133u)
